Patent US20260192003A1, “CHELATING COMPOUNDS AND METHODS OF USES THEREOF” (THE REGENTS OF THE UNIVERSITY OF CALIFORNIA, priority 2023, published 2026)
Like-named read-outs stand apart in the source and are kept apart here. Marks after values point to notes of the source that are not given here.

Columns and labels:
[1] = Arsenazo III dye displacement, indirect kinetics of Th^4+ complexation; assay type: physicochemical; conditions: for k2: 5 μM Th^4+, 25 μM Arsenazo III, 75 μM ligand (15 equiv.), 100 mM HEPES (pH 7.4), 25° C.
Description: Another important aspect of chelators for radiopharmaceutical applications is the kinetics of complexation with the radiometal of interest. A ligand must be able to bind the radioactive metal ion rapidly and completely to minimize the extent of radioactive decay before administration in vivo. […] To access the suitability of DOTHOPO and MeDOTHOPO in this context, we sought to determine the kinetics of Th^4+ complexation of these chelators in aqueous solution at 25° C. […] Following literature precedent,^35 the relative rate of metal complexation by these ligands could be studied indirectly using the dye Arsenazo III, which forms highly colored complexes with Th^4+ with a prominent absorbance band at 669 nm.^92 The addition of excess chelator to solutions of Th^4+ and Arsenazo III caused the dye to be displaced and the formation of the metal-chelator complex could be monitored by the disappearance of the absorbance features corresponding to the metal-dye compound (FIG. 4).
The aim of these experiments was to determine a second-order rate constant for the complexation reaction of Th^4+ by DOTHOPO and MeDOTHOPO. […] For comparison purposes, the second-order rate constant of complexation was calculated using the reaction of 15 equiv. of ligand relative to metal (Table 4, see SI for details). The [ThL] (L=DOTHOPO, MeDOTHOPO) complexes form rapidly in aqueous solution. The second-order halflives, calculated for 10 μM each of metal and ligand, are 30 and 18 min for DOTHOPO and MeDOTHOPO respectively. The faster complexation kinetics of MeDOTHOPO compared to DOTHOPO can likely be attributed to the increased flexibility of the ligand.

[2] = previous work, similar conditions, room temperature, after 2 months; cited from earlier work
[3] = Spectrophotometric titration, cumulative formation constants and pM with Fe^3+; assay type: physicochemical; conditions: 25° C., I = 0.1M KCl; for pM, Fe^3+: pM = -log[M]free, [M]tot = 10^−6M, [L]tot = 10^−5M, pH 7.4
Description: The affinity of these ligands for Fe3+ was explored as a representative endogenous metal that could compete with Th^4+ in vivo. The stability constants of DOTHOPO and MeDOTHOPO with Fe^3+ were determined by incremental spectrophotometric titrations, similar to those described for Zr^4+ and Th^4+ in the Supporting Information.
(§1) The log βmlh values reported above are pH-independent absolute stability constants. Because these ligands have differing pKa values, competition between H^+ and the metal of interest under different pH conditions will give rise to different pH-dependent conditional stability constants that are not accurately described by log βML values. To mitigate this issue and allow for direct comparison between ligands, we calculated the pM values (pM=−log[Mfree], where Mfree=solvated metal ions free of complexation by ligand or hydroxide when [L]=10^−5 M and [M]=10^−6 M)^85 for each ligand with the Fe^3+, Zr^4+, and Th^4+ (Table 3).

[4] = UV-vis spectrophotometric titration, cumulative formation constants and pM with Th^4+; assay type: physicochemical; conditions: 25° C., I = 0.1M KCl; for pM, Th^4+: pM = -log[M]free, [M]tot = 10^−6M, [L]tot = 10^−5M, pH 7.4, MeDOTHOPO predicted from Table 2 log β
Text: (§2) We next sought to evaluate the thermodynamic stabilities of the Zr^4+ and Th^4+ complexes of DOTHOPO and MeDOTHOPO by measuring their cumulative formation constants (log βmlh, see Supplementary Information for details). […] Above pH 10, the complexes dissociate to yield the free ligand and metal-hydroxide species, which could be leveraged to determine the stability constants of the Zr^4+ and Th^4+ complexes via UV-vis spectrophotometric titrations (FIGS. 2 and 3). […] The pH dependent species distribution diagrams for DOTHOPO with Zr^4+ and Th^4+ are provided in the Supporting Information. Importantly, the metal remains completely bound by the chelator below pH 10 and the major species present at pH 7.4 is the 1:1 ML complex for both metals. […] As such, the log βmlh values of MeDOTHOPO with Zr^4+ and Th^4+ were predicted to be ≥51 and ≥53, respectively, using Hyss (Table 2).
as §1

[5] = Potentiometric titration, protonation constants (pKa); assay type: physicochemical; conditions: for ΣpKa: sum of the pKa values tentatively assigned to protonation of the HOPO units
Description: The protonation constants (pKa) of the synthesized ligands were determined potentiometrically in 0.1 M KCl. […] Based on previous studies involving ligands bearing the tetraazacyclododecane backbone,^80-82 the remaining two pKa values likely correspond to protonation of two of the amine groups present in the macrocycle (Table 1). The 1,2-HOPO donors of MeDOTHOPO are approximately 1 pKa unit more basic than those of 3,4,3-LI-(1,2-HOPO) or DOTHOPO.

[6] = UV-vis spectrophotometric titration, cumulative formation constants and pM with Zr^4+; assay type: physicochemical; conditions: 25° C., I = 0.1M KCl; for pM, Zr^4+: pM = -log[M]free, [M]tot = 10^−6M, [L]tot = 10^−5M, pH 7.4, MeDOTHOPO predicted from Table 2 log β
Text: as §2, §1

[7] = 25° C., I = 0.1M KCl; reference 48; cited from earlier work
[8] = cited from earlier work
[9] = 25° C., I = 0.1M KCl; reference 48; cited from earlier work; remark: listed apart in the source
[10] = cited from earlier work; remark: listed apart in the source
[11] = 25° C., I = 0.1M KCl, data taken from Ref. 48
[12] = 25° C., I = 0.1M KCl, reference 48

SMILES | k2 [1] | log βmih, Fe^3+, [FeLH] [3] | log βmih, Fe^3+, [FeL]^− [3] | pM, Fe^3+ [3] | pM, Th^4+ [4] | pKa1 ([5]; 25° C., I = 0.1M KCl, n = 5) | pKa2 ([5]; 25° C., I = 0.1M KCl, n = 5) | pKa3 ([5]; 25° C., I = 0.1M KCl, n = 5) | pKa4 ([5]; 25° C., I = 0.1M KCl, n = 5) | ΣpKa [5] | pM, Zr^4+ [6] | other results
O=C(O)CN1CCN(CC(=O)O)CCN(CC(=O)O)CCN(CC(=O)O)CC1 [DOTA, 1,4,7,10-tetraazacyclododecane-N,N′,N″,N″-1,4,7,10-tetraacetic acid, reference compound] |  |  |  |  |  |  |  |  |  |  |  | complexation of Th^4+ (Arsenazo III displacement) ([1]; over 24 h at 25° C.): did not show any complexation; displacement of Arsenazo III from Th^4+ [2]: does not displace Arsenazo III
O=C(c1cccc(=O)n1O)N1CCN(C(=O)c2cccc(=O)n2O)CCN(C(=O)c2cccc(=O)n2O)CCN(C(=O)c2cccc(=O)n2O)CC1 [DOTHOPO] | 54.2 ± 2.8 M⁻¹ s⁻¹ | 33.3(6) | 27.8(4) | 28.7 | 35.3 | 6.43(9) | 5.46(1) | 5.05(3) | 4.28(6) | 21.34 | 43.7 | log βmih, Th^4+, [ThLH]^+ [4]: 38.5(1); log βmih, Th^4+, [ThL] [4]: 34.4(1); log βmih, Zr^4+, [ZrLH]^+ [6]: 47.0(6); log βmih, Zr^4+, [ZrL] [6]: 42.9(4)
O=C(O)CN(CCN(CC(=O)O)CC(=O)O)CCN(CC(=O)O)CC(=O)O [DTPA, reference compound] | 7.9 ± 0.9 M⁻¹ s⁻¹ |  |  |  |  |  |  |  |  |  |  | 
Cn1ccc(C(=O)NCCN(CCNC(=O)c2ccn(C)c(=O)c2O)CCC(Cc2ccc(NC(=O)CCC(=O)O)cc2)N(CCNC(=O)c2ccn(C)c(=O)c2O)CCNC(=O)c2ccn(C)c(=O)c2O)c(O)c1=O (centres unmarked) [L1] |  |  |  | 25.1 | 39.9 |  |  |  |  |  | 42.9 | log βmih, Zr^4+, [ZrLH]^+ [7]: 50.6(2); log βmih, Zr^4+, [ZrL] [7]: 44.7(1); pKa1 [8, 11]: 2.93(35); pKa2 [8, 11]: 4.39(8)^c; pKa3 [8, 11]: 4.73(34); pKa4 [8, 11]: 5.97(14); pKa5 [8, 11]: 6.90(5); pKa6 [8, 11]: 7.74(6); pKa7 [8, 11]: 9.58(16); ΣpKa ([8]; sum of the pKa values assigned to the HOPO units, Ref. 48): 21.99; log βmih, Fe^3+, [FeLH] [9]: 31.2(4); log βmih, Fe^3+, [FeL]^− [9]: 26.9(3); log βmih, Th^4+, [ThH−1L]^2− [10, 12]: 32.4(4); log βmih, Th^4+, [ThLH] [10, 12]: 45.9(4); log βmih, Th^4+, [ThL]^− [10, 12]: 41.7(3); log βThL ([10]; background, literature value): 41.72
O=c1cccc(CN2CCN(Cc3cccc(=O)n3O)CCN(Cc3cccc(=O)n3O)CCN(Cc3cccc(=O)n3O)CC2)n1O [MeDOTHOPO, 1,4,7,10-tetraazacyclododecane-1,4,7,10-tetra(methylene)tetrakis(1-hydroxy-2-pyridinone)] | 89.2 ± 8.5 M⁻¹ s⁻¹ | 39.5(4) | 30.3(2) | 27.6 | >48^b | 10.52(6) | 9.1(2) | 7.79(8) | 6.63(3) | 24.96 | >46^b | pKa5 ([5]; 25° C., I = 0.1M KCl, n = 5): 6.06(3); pKa6 ([5]; 25° C., I = 0.1M KCl, n = 5): 4.41(6)
